Assay results as given in patent US9925232B2, “Methods and compositions comprising desmopressin in combination with a 5-alpha reductase inhibitor” (Serenity Pharmaceuticals LLC, priority 2013, dated 2018).

Tests used:
[1] = tested on: patients experiencing on average at least two nocturnal voids per night; test: Clinical study: reduction in the average number of nocturnal voids (Responder / Non-Responder); assay type: in vivo, human
Experimental: A clinical study was performed to evaluate the impact of administering desmopressin in combination with a 5-alpha reductase inhibitor alone or together with an alpha-adrenergic receptor antagonist to reduce the occurrence of nocturnal voiding by a patient. Experimental procedures and results are described below. […] Patients received as a nasal spray either (i) a 1.5 μg dosage of desmopressin or (ii) placebo. The desmopressin nasal spray (or placebo) was administered daily just prior to bedtime for a duration of twelve weeks. In addition, patients previously diagnosed as suffering from benign prostatic hyperplasia (BPH) and receiving a 5-alpha reductase inhibitor alone or together with an alpha-adrenergic receptor antagonist for treatment of BPH continued to receive the 5-alpha reductase inhibitor alone or together with the alpha-adrenergic receptor antagonist at the same dosage and frequency used prior to enrollment in this study. All patients in this study who received a 5-alpha reductase inhibitor alone or together with an alpha-adrenergic receptor antagonist for treatment of their BPH had been receiving the 5-alpha reductase inhibitor alone or together with the alpha-adrenergic receptor antagonist for at least 2 months before enrollment in this study and experienced on average at least two nocturnal voids per night before enrollment in this study. The desmopressin nasal spray was prepared by combining aliquots of an Emulsion Stock Solution and a Buffer Solution as described below. To produce the desmopressin nasal spray, aliquots of the 30 μg/mL solution were filtered to eliminate any bacterial contamination and diluted with an equal volume of emulsion stock solution to produce aseptic, preservative free dose forms comprising 15 μg/mL desmopressin, pH 5.5, containing 2% cyclopentadecanolide. These were bottled in sterile pump spray bottles fitted with a Pfeiffer APF pump sprayers that deliver 100 μL per metered spray (i.e., 1.5 μg desmopressin (i.e., 1500 ng desmopressin) per spray). The liquid contains no detectable microorganisms. Patients recorded the occurrence of nocturnal voids during the study period. Patients were designated to be a “Responder” if after receiving treatment there was a reduction in the average number of nocturnal voids during the treatment period.

[2] = human, in vivo; cited from earlier work
[3] = BPH patients receiving 5-alpha reductase inhibitor alone or together with alpha-adrenergic receptor antagonist, 1.5 μg nasal spray daily, twelve weeks, n = 14
[4] = BPH patients, second component none (no 5-alpha reductase inhibitor or alpha-adrenergic receptor antagonist), 1.5 μg nasal spray daily, twelve weeks, n = 42
[5] = BPH patients, alpha-adrenergic receptor antagonist and 5-alpha reductase inhibitor, 1.5 μg desmopressin nasal spray daily, twelve weeks, n = 14
[6] = BPH patients, second component 5-alpha reductase inhibitor, 1.5 μg desmopressin nasal spray daily prior to bedtime, twelve weeks, n = 14
[7] = male patients without BPH, second component none, 1.5 μg nasal spray daily, twelve weeks, n = 34

Q: With NC(=O)CC[C@@H]1NC(=O)[C@H](Cc2ccccc2)NC(=O)[C@H](Cc2ccc(O)cc2)NC(=O)CCSSC[C@@H](C(=O)N2CCC[C@H]2C(=O)N[C@H](CCCN=C(N)N)C(=O)NCC(N)=O)NC(=O)[C@H](CC(N)=O)NC1=O [Desmopressin, 1-desamino-8-D-arginine vasopressin] as the molecule, how does the “Difference in Responder Response Rate Between Desmopressin-treated Patients & Those Receiving Placebo” value (shortened to “Difference”) ([1]; BPH patients receiving 5-alpha reductase inhibitor alone or together with alpha-adrenergic receptor antagonist) read?
A: 40%

Q: What about the “Non-Responder Patients: Total Number of Patients that Received Desmopressin” value [1, 3] of the same molecule?
A: 6

Q: What about the “Percent Total Non-Responder Patients that Received Desmopressin” value [1, 3] of the same molecule?
A: 43% (6/14)

Q: And the “Percent Total Responder Patients that Received Desmopressin (absolute response rate)” value [1, 3]?
A: 57%

Q: What about the “Responder Patients: Total Number of Patients that Received Desmopressin” value [1, 3] of the same molecule?
A: 8

Q: What about the “Difference” value ([1]; BPH patients receiving 5-alpha reductase inhibitor alone or together with alpha-adrenergic receptor antagonist, listed as desmopressin) of the same molecule?
A: 40%

Q: What about the “Difference” value ([1]; BPH patients that did not receive a 5-alpha reductase inhibitor or an alpha-adrenergic receptor antagonist) of the same molecule?
A: 14%

Q: And the “Difference” value ([1]; BPH patients that did not receive a 5-alpha reductase inhibitor or an alpha-adrenergic receptor antagonist, listed as desmopressin)?
A: 14%

Q: What about the “Non-Responder Patients: Number of Patients that Received Desmopressin” value (from here on “Non-Responder Patients: Number”) [1, 4] of the same molecule?
A: 24

Q: What about the “Percent Total Non-Responder Patients that Received Desmopressin” value [1, 4] of the same molecule?
A: 57%

Q: What about the “Percent Total Responder Patients that Received Desmopressin (absolute response rate)” value [1, 4] of the same molecule?
A: 43%

Q: What about the “Responder Patients: Number of Patients that Received Desmopressin” value [1, 4] of the same molecule?
A: 18

Q: And the “Percent Total Responder Patients that Received Desmopressin (absolute response rate)” value ([1]; BPH patients, second component none (no 5-alpha reductase inhibitor or alpha-adrenergic receptor antagonist), 1.5 μg nasal spray daily, twelve weeks, n = 42, listed as desmopressin)?
A: 43%

Q: What about the “Non-Responder Patients: Number” value [1, 5] of the same molecule?
A: 2

Q: And the “Responder Patients: Number of Patients that Received Desmopressin” value [1, 5]?
A: 5

Q: And the “Non-Responder Patients: Number” value [1, 6]?
A: 4

Q: And the “Responder Patients: Number of Patients that Received Desmopressin” value [1, 6]?
A: 3

Q: And the “Difference” value ([1]; male patients not diagnosed with BPH, not receiving a 5-alpha reductase inhibitor or an alpha-adrenergic receptor antagonist)?
A: 18%

Q: And the “Difference” value ([1]; male patients not diagnosed with BPH, not receiving a 5-alpha reductase inhibitor or an alpha-adrenergic receptor antagonist, listed as desmopressin)?
A: 18%

Q: What about the “Non-Responder Patients: Number” value [1, 7] of the same molecule?
A: 16

Q: What about the “Percent Total Non-Responder Patients that Received Desmopressin” value [1, 7] of the same molecule?
A: 47%

Q: And the “Percent Total Responder Patients that Received Desmopressin (absolute response rate)” value [1, 7]?
A: 53%

Q: And the “Responder Patients: Number of Patients that Received Desmopressin” value [1, 7]?
A: 18

Q: And the “Percent Total Responder Patients that Received Desmopressin (absolute response rate)” value ([1]; male patients without BPH, second component none, 1.5 μg nasal spray daily, twelve weeks, n = 34, listed as desmopressin)?
A: 53%

Q: What about the “half-life (known clearance rate)” value [2] of the same molecule?
A: 1.5 to 2.0 h
